Assay results published in US10556888B2, “Pyrazole compounds or salts thereof, preparation methods therefor, herbicidal compositions and use thereof” (QINGDAO KINGAGROOT CHEMICAL COMPOUNDS CO., LTD, priority 2015, dated 2020).

Columns and labels:
[1] = test system: Monocotyledonous and dicotyledonous weed; assay: Post-emergence test experiment, weed control effect (Table 2); type: in vivo; design: key to weed control effect, Setaria viridis (level) / weed control effect, Rorippa indica (level) / weed control effect, Abutilon theophrasti (level) / weed control effect, Echinochloa crus-galli (level) / weed control effect, Digitaria sanguinalis (level): Level 10: completely dead; Level 9: above 90% growth inhibition rate; Level 8: above 80% growth inhibition rate; Level 7: above 70% growth inhibition rate; Level 6: above 60% growth inhibition rate; Level 5: above 50% growth inhibition rate; Level 4: above 30% growth inhibition rate; Level 3: above 20% growth inhibition rate; Level 2: above 10% growth inhibition rate; Level 1: above 1-10% growth inhibition rate; Level 0: no effect; details: 3 weeks after spraying, greenhouse
How it was run: (§1)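 Compounds, dissolved in acetone, mixed with Tween 80 and diluted in water, were sprayed post-emergence onto greenhouse-grown weeds and crops at the 2-3 leaf stage (2-3 weeks post-sowing). Plants then grown 3 more weeks in the greenhouse before evaluation.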

[2] = test system: main crop (wheat, corn, rice, soybean, cotton, oilseed, millet and sorghum); assay: Post-emergence test experiment, main crops (Table 2); type: in vivo; design: key: Level 10: completely dead; Level 9: above 90% growth inhibition rate; Level 8: above 80% growth inhibition rate; Level 7: above 70% growth inhibition rate; Level 6: above 60% growth inhibition rate; Level 5: above 50% growth inhibition rate; Level 4: above 30% growth inhibition rate; Level 3: above 20% growth inhibition rate; Level 2: above 10% growth inhibition rate; Level 1: above 1-10% growth inhibition rate; Level 0: no effect; details: 3 weeks after spraying, greenhouse
How it was run: as §1

SMILES	weed control effect, Abutilon theophrasti (level) ([1]; 30 g/ha)	weed control effect, Bidens pilosa (level) ([1]; 30 g/ha)	weed control effect, Digitaria sanguinalis (level) ([1]; 30 g/ha)	weed control effect, Echinochloa crus-galli (level) ([1]; 30 g/ha)	weed control effect, Rorippa indica (level) ([1]; 30 g/ha)	weed control effect, Setaria viridis (level) ([1]; 30 g/ha)	effect on crop, corn (level) ([2]; 30 g/ha)	effect on crop, rice (level) ([2]; 30 g/ha)	effect on crop, wheat (level) ([2]; 30 g/ha)	weed control effect, Abutilon theophrasti (level) ([1]; 120 g/ha)	weed control effect, Bidens pilosa (level) ([1]; 120 g/ha)	weed control effect, Digitaria sanguinalis (level) ([1]; 120 g/ha)	weed control effect, Echinochloa crus-galli (level) ([1]; 120 g/ha)	weed control effect, Rorippa indica (level) ([1]; 120 g/ha)	weed control effect, Setaria viridis (level) ([1]; 120 g/ha)	effect on crop, corn (level) ([2]; 120 g/ha)	effect on crop, rice (level) ([2]; 120 g/ha)	effect on crop, wheat (level) ([2]; 120 g/ha)
COCc1c(S(C)(=O)=O)ccc(C(=O)c2c(C3CC3)nn(C)c2OC(=O)c2cnn(C)c2)c1Cl [Compound 72]	7 (Level 7: above 70% growth inhibition rate)	7 (Level 7: above 70% growth inhibition rate)	8 (Level 8: above 80% growth inhibition rate)	10	10	8 (Level 8: above 80% growth inhibition rate)	2 (Level 2: above 10% growth inhibition rate)	3 (Level 3: above 20% growth inhibition rate)	0									
CCOCc1c(S(C)(=O)=O)ccc(C(=O)c2c(C)nn(C)c2OC(=O)c2cnn(C)c2)c1Cl [Compound 73]	7 (Level 7: above 70% growth inhibition rate)	7 (Level 7: above 70% growth inhibition rate)	9 (Level 9: above 90% growth inhibition rate)	10	10	9 (Level 9: above 90% growth inhibition rate)	0	3 (Level 3: above 20% growth inhibition rate)	0									
CCOCCOCc1c(S(C)(=O)=O)ccc(C(=O)c2c(C3CC3)nn(C)c2OC(=O)c2cnn(C)c2)c1Cl [Compound 74]	7 (Level 7: above 70% growth inhibition rate)	5 (Level 5: above 50% growth inhibition rate)	6 (Level 6: above 60% growth inhibition rate)	10	10	6 (Level 6: above 60% growth inhibition rate)	0	3 (Level 3: above 20% growth inhibition rate)	0									
CCCCOCc1c(S(C)(=O)=O)ccc(C(=O)c2c(C3CC3)nn(C)c2OC(=O)c2cnn(C)c2)c1Cl [Compound 75]	5 (Level 5: above 50% growth inhibition rate)	6 (Level 6: above 60% growth inhibition rate)	9 (Level 9: above 90% growth inhibition rate)	10	10	7 (Level 7: above 70% growth inhibition rate)	0	3 (Level 3: above 20% growth inhibition rate)	0									
Cc1nn(C)cc1C(=O)Oc1c(C(=O)c2ccc(S(C)(=O)=O)c(Cn3cccn3)c2C)cnn1C [Compound 77]	7 (Level 7: above 70% growth inhibition rate)	7 (Level 7: above 70% growth inhibition rate)	7 (Level 7: above 70% growth inhibition rate)	10	10	10	1 (Level 1: above 1-10% growth inhibition rate)	3 (Level 3: above 20% growth inhibition rate)	0									
Cc1c(C(=O)c2c(C3CC3)nn(C)c2OC(=O)c2cnn(C)c2)ccc(S(C)(=O)=O)c1COCC(F)(F)F [Compound 78]	7 (Level 7: above 70% growth inhibition rate)	7 (Level 7: above 70% growth inhibition rate)	7 (Level 7: above 70% growth inhibition rate)	10	10	10	1 (Level 1: above 1-10% growth inhibition rate)	3 (Level 3: above 20% growth inhibition rate)	0									
Cc1cc(C)n(Cc2c(S(C)(=O)=O)ccc(C(=O)c3c(C)nn(C)c3OC(=O)c3cnn(C)c3)c2C)n1 [Compound 79]										6 (Level 6: above 60% growth inhibition rate)	6 (Level 6: above 60% growth inhibition rate)	1 (Level 1: above 1-10% growth inhibition rate)	10	4 (Level 4: above 30% growth inhibition rate)	3 (Level 3: above 20% growth inhibition rate)	0	0	0
CCOCc1c(S(C)(=O)=O)ccc(C(=O)c2cnn(C)c2OC(=O)c2cnn(C)c2OCC)c1C [Compound 80]	6 (Level 6: above 60% growth inhibition rate)	7 (Level 7: above 70% growth inhibition rate)	7 (Level 7: above 70% growth inhibition rate)	10	10	6 (Level 6: above 60% growth inhibition rate)	0	3 (Level 3: above 20% growth inhibition rate)	0									
CCOc1c(C(=O)Oc2c(C(=O)c3ccc(S(C)(=O)=O)c(Cn4cc(C)cn4)c3C)c(C3CC3)nn2C)cnn1C [Compound 81]										6 (Level 6: above 60% growth inhibition rate)	6 (Level 6: above 60% growth inhibition rate)	1 (Level 1: above 1-10% growth inhibition rate)	10	4 (Level 4: above 30% growth inhibition rate)	3 (Level 3: above 20% growth inhibition rate)	0	0	0
CCOc1c(C(=O)Oc2c(C(=O)c3ccc(S(C)(=O)=O)c(Cn4cc(Cl)cn4)c3C)c(C)nn2CC)cnn1C [Compound 82]										6 (Level 6: above 60% growth inhibition rate)	6 (Level 6: above 60% growth inhibition rate)	1 (Level 1: above 1-10% growth inhibition rate)	10	4 (Level 4: above 30% growth inhibition rate)	3 (Level 3: above 20% growth inhibition rate)	0	0	0
CCn1nc(C2CC2)c(C(=O)c2ccc(S(C)(=O)=O)c(Cn3cc(Cl)cn3)c2C)c1OC(=O)c1cn(C)nc1C [Compound 84]										6 (Level 6: above 60% growth inhibition rate)	6 (Level 6: above 60% growth inhibition rate)	1 (Level 1: above 1-10% growth inhibition rate)	10	4 (Level 4: above 30% growth inhibition rate)	3 (Level 3: above 20% growth inhibition rate)	0	0	0
